# Data: ChEMBL document CHEMBL1201862, “PubChem BioAssay data set” (2004)
#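 Where inhibition never reached the appropriate level, the endpoint shown equals the highest concentration tested. Otherwise, values were interpolated linearly from a five-concentration, 48-hour dose response in 96-well plates. GI50 = concentration required for 50% inhibition of growth.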 Active and inactive are the calls of the source. Rule as the data show it: active = GI50 up to about 1.1 µM and inactive = higher.
# How the values were obtained:
# Assay in all cases: NCI anticancer screen, dose series, 48 h
# [1] = tested on: BT-549
# [2] = tested on: M14
# [3] = tested on: NCI/ADR-RES
# [4] = tested on: ACHN
# [5] = tested on: HL-60
# [6] = tested on: NCI-H522
# [7] = tested on: PC-3
# [8] = tested on: KM12
# [9] = tested on: NCI-H23
# [10] = tested on: MOLT-4
# [11] = tested on: OVCAR-5
# [12] = tested on: SK-OV-3
# [13] = tested on: CAKI-1
# [14] = tested on: NCI-H226
# [15] = tested on: IGROV-1
# [16] = tested on: DU-145
# [17] = tested on: EKVX
# [18] = tested on: 786-0
# [19] = tested on: K562
# [20] = tested on: MCF7
# [21] = tested on: A498
# [22] = tested on: MDA-MB-231
# [23] = tested on: TK-10
# [24] = tested on: SNB-19
# [25] = tested on: RPMI-8226
# [26] = tested on: MDA-MB-435
# [27] = tested on: CCRF-CEM
# [28] = tested on: SK-MEL-28
# [29] = tested on: Malme-3M
# [30] = tested on: UACC-257
# [31] = tested on: HT-29
# [32] = tested on: SF-539
# [33] = tested on: NCI-H460
# [34] = tested on: OVCAR-3
# [35] = tested on: SF-268
# [36] = tested on: UACC-62
# [37] = tested on: SNB-75
# [38] = tested on: U-251
# [39] = tested on: OVCAR-8
# [40] = tested on: HCT-15
# [41] = tested on: SW-620
# [42] = tested on: SK-MEL-5
# [43] = tested on: SF-295
# [44] = tested on: MDA-N
# [45] = tested on: HCC 2998
# [46] = tested on: UO-31
# [47] = tested on: SR
# [48] = tested on: COLO 205
# [49] = tested on: OVCAR-4
# [50] = tested on: HCT-116
# [51] = tested on: LOX IMVI
# [52] = tested on: A549
# [53] = tested on: SN12C
# [54] = tested on: HOP-92
# [55] = tested on: HOP-62
# [56] = tested on: Hs-578T
# [57] = tested on: RXF 393
# [58] = tested on: T47D
# [59] = tested on: SK-MEL-2
structure (smiles),measurement,setting,value
O=C(CCl)N1CCCCC1C1(c2cc3ccccc3[nH]2)OCCO1 (centres undefined),GI50,[1],2.05 µM (inactive)
same,GI50,[2],3.99 µM (inactive)
same,GI50,[3],3.05 µM (inactive)
same,GI50,[4],5 µM (inactive)
same,GI50,[5],0.685 µM (active)
same,GI50,[6],0.194 µM (active)
same,GI50,[7],2.98 µM (inactive)
same,GI50,[8],1.77 µM (inactive)
same,GI50,[9],2.21 µM (inactive)
same,GI50,[10],1.85 µM (inactive)
same,GI50,[11],4.17 µM (inactive)
same,GI50,[12],5.78 µM (inactive)
same,GI50,[13],0.828 µM (active)
same,GI50,[14],6.53 µM (inactive)
same,GI50,[15],0.198 µM (active)
same,GI50,[16],5.11 µM (inactive)
same,GI50,[17],1.5 µM (inactive)
same,GI50,[18],0.869 µM (active)
same,GI50,[19],1.93 µM (inactive)
same,GI50,[20],2.56 µM (inactive)
same,GI50,[21],4.6 µM (inactive)
same,GI50,[22],2.69 µM (inactive)
same,GI50,[23],3.5 µM (inactive)
same,GI50,[24],10.6 µM (inactive)
same,GI50,[25],2.12 µM (inactive)
same,GI50,[26],3.36 µM (inactive)
same,GI50,[27],0.281 µM (active)
same,GI50,[28],11.6 µM (inactive)
same,GI50,[29],4.47 µM (inactive)
same,GI50,[30],4.7 µM (inactive)
same,GI50,[31],3.66 µM (inactive)
same,GI50,[32],1.65 µM (inactive)
same,GI50,[33],9.71 µM (inactive)
same,GI50,[34],2.01 µM (inactive)
same,GI50,[35],3.22 µM (inactive)
same,GI50,[36],3.14 µM (inactive)
same,GI50,[37],2.65 µM (inactive)
same,GI50,[38],2.86 µM (inactive)
same,GI50,[39],4.24 µM (inactive)
same,GI50,[40],4.82 µM
same,GI50,[41],4.19 µM (inactive)
same,GI50,[42],3.08 µM (inactive)
same,GI50,[43],3.77 µM (inactive)
same,GI50,[44],2.34 µM (inactive)
same,GI50,[45],10.4 µM (inactive)
same,GI50,[46],3.73 µM (inactive)
same,GI50,[47],0.454 µM (active)
same,GI50,[48],2.94 µM (inactive)
same,GI50,[49],1.73 µM (inactive)
same,GI50,[50],2.84 µM (inactive)
same,GI50,[51],0.0349 µM (active)
same,GI50,[52],5.61 µM (inactive)
same,GI50,[53],2.25 µM (inactive)
same,GI50,[54],1 µM (active)
same,GI50,[55],3.12 µM (inactive)
same,GI50,[56],3.3 µM (inactive)
same,GI50,[57],3.8 µM (inactive)
same,GI50,[58],7.45 µM (inactive)
same,GI50,[59],7.98 µM (inactive)
